{"source": "patent US20150216865A1", "about": "“METHODS OF TREATING A BRUTON'S TYROSINE KINASE DISEASE OR DISORDER” (Celgene Avilomics Research, Inc., priority 2012, published 2015)", "key": {"Btk [1]": {"biological_target": "T1, Btk (Homo sapiens, UniProt Q06187)", "T1 sequence (Q06187 whole entry)": "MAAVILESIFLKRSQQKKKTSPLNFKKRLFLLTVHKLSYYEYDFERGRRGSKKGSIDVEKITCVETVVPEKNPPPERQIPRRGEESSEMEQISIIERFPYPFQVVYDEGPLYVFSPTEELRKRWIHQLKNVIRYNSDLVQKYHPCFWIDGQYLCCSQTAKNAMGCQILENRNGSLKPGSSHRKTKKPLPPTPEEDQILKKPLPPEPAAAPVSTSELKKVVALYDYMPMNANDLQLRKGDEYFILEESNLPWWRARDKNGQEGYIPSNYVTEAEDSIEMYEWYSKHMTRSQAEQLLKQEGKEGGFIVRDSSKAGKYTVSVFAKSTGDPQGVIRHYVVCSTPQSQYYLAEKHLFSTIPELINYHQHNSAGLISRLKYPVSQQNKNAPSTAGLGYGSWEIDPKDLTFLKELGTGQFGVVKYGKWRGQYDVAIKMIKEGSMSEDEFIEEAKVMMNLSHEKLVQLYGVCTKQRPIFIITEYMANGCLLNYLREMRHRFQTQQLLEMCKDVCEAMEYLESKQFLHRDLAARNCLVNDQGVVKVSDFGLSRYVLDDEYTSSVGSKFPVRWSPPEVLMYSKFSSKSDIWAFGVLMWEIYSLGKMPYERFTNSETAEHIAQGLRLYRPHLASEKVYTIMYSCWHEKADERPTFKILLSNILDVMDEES", "assay": "Btk biochemical kinase assay", "details": "read-out: IC50apparent, Btk kinase activity"}, "Syk": {"biological_target": "Syk (Homo sapiens, UniProt P43405)", "assay": "Biochemical kinase assay, Syk (probe selectivity)", "details": "read-out: IC50app Syk"}, "EGFR": {"biological_target": "EGFR (Homo sapiens, UniProt P00533)", "sequence (P00533 25-1210)": "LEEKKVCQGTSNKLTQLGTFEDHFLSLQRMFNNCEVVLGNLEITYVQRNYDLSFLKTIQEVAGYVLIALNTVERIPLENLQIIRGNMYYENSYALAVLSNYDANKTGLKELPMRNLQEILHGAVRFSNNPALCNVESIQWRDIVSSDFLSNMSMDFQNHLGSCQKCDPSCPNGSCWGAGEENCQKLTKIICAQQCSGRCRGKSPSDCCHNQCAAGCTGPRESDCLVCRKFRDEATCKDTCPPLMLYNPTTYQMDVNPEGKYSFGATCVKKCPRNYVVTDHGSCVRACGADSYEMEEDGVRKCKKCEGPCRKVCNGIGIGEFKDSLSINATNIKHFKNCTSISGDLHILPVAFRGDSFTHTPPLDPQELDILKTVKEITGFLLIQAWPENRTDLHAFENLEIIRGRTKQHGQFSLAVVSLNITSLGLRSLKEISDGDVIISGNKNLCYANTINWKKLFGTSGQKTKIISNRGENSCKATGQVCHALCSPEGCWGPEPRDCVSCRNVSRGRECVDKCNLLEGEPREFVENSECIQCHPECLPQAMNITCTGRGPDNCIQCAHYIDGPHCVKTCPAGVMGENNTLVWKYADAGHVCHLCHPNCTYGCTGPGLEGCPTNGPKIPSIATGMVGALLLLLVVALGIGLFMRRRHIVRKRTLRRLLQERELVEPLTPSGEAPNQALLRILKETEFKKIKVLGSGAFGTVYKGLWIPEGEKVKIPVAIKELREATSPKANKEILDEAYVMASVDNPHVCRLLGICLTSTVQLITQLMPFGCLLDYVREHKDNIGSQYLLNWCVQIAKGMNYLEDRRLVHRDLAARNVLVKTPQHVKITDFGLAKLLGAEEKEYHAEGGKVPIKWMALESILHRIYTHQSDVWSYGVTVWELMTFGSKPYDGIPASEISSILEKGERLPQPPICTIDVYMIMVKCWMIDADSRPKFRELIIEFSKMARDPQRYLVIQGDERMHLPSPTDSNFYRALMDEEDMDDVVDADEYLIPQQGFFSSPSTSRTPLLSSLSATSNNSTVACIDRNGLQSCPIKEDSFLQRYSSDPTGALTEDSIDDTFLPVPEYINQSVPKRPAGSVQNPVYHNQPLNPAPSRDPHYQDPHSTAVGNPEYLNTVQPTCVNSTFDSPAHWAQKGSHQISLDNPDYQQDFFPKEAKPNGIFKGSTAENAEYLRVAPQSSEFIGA", "assay": "Biochemical kinase assay, EGFR (probe selectivity)", "details": "read-out: IC50app EGFR"}, "Lyn": {"biological_target": "Lyn (Homo sapiens, UniProt P07948)", "sequence (P07948 whole entry)": "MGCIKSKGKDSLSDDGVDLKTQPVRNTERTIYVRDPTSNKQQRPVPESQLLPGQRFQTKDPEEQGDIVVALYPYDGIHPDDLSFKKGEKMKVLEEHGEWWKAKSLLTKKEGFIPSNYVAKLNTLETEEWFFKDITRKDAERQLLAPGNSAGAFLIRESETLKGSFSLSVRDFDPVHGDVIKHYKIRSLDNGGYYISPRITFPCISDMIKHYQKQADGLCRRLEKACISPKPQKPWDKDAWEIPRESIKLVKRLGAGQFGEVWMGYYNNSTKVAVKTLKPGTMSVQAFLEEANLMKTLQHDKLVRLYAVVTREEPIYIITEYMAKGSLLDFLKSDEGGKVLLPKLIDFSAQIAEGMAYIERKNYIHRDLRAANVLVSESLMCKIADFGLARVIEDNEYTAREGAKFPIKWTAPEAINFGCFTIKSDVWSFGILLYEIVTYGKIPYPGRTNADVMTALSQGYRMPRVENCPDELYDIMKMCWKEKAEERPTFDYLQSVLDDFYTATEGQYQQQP", "assay": "Biochemical kinase assay, Lyn (probe selectivity)", "details": "read-out: IC50app Lyn"}, "[2]": {"test_system": "semi-established CIA Dba1 mice", "assay": "Semi-established collagen induced arthritis (CIA) model", "type": "in vivo, mouse", "details": "for disease incidence: study day 33", "method": "Semi-Established Collagen Induced Arthritis (CIA) Arthritis Model. Experiments were carried out at Bolder Biopath, Boulder, Colo. All experiments were carried out in compliance with regulations of the Institutional Animal Care and Use Committee and were conducted in accordance with principles and procedures dictated by the highest standards of humane animal care. Dba1 mice were injected at the base of the tail with 150 μL of Freund's Complete Adjuvant (Sigma) containing bovine type II collagen (Elastin Products, Owensville, Mo.) (2 mg/ml) on day 0 and again on day 21. Mice were randomized into treatment groups on study day 21, and treatment was initiated. Treatment continued daily (3 mg/kg, 10 mg/kg or 30 mg/kg QD at 24 hour intervals) through day 33, and mice were terminated on day 33 (animals 1-6) or day 34 (animals 7-12). Onset of arthritis occurred between study days 21 and 34. Clinical scores were assessed for each of the paws on study days 21-34 using the following scoring system: 0=normal, 1=one hind or fore paw joint affected or minimal diffuse erythema and swelling, 2=two hind or fore paw joints affected or mild diffuse erythema and swelling, 3=three hind or fore paw joints affected or moderate diffuse erythema and swelling, 4=marked diffuse erythema and swelling or =four digit joints affected, 5=severe diffuse erythema and severe swelling entire paw, unable to flex digits. Spleens and plasma were harvested at necropsy (day 33 for animals 1-6 and day 34 for animals 7-12) and paws were removed and fixed in formalin for histopathological analysis."}, "TNF-a": {"test_system": "TNF-a", "assay": "Inflammatory chemokine and cytokine analysis in CIA mice, TNF-a", "type": "in vivo, mouse", "details": "dexamethasone group", "method": "(§1) Inflammatory Chemokine and Cytokine Analysis: At the termination of the CIA study, mice were sacrificed and blood was harvested via cardiac punch using EDTA as an anticoagulant. Following centrifugation, serum was diluted 1:4 with a mouse serum diluents kit (BioRad cat#171-305004). Levels of various mouse cytokines in plasma were quantified using Bioplex® Suspension Array System according to manufacturer's instruction (BioRad, mTNFa (171-G5023M), mIL-6 (171-G5007M), mKC (171-G5018M), mIFNg (171-G5017M), mIL-17 (Z60-00006Z2), mIL-1β (171-G5002M), mMCP-1 (171-G5019M)."}, "IL-6": {"test_system": "IL-6", "assay": "Inflammatory chemokine and cytokine analysis in CIA mice, IL-6", "type": "in vivo, mouse", "details": "dexamethasone group", "excerpt": "as §1, with “Following centrifugation, serum was diluted 1:4 with a mouse serum diluents kit (BioRad cat#171-305004).” left out"}, "KC": {"test_system": "KC", "assay": "Inflammatory chemokine and cytokine analysis in CIA mice, KC", "type": "in vivo, mouse", "details": "dexamethasone group", "excerpt": "as §1, with “Following centrifugation, serum was diluted 1:4 with a mouse serum diluents kit (BioRad cat#171-305004).” left out"}, "[3]": {"test_system": "collagen-induced arthritis Dba1 mouse model", "assay": "Established collagen induced arthritis model (clinical score, histopathology, body weight)", "type": "in vivo", "method": "Established Collagen Induced Arthritis Model: Experiments were carried out at Bolder Biopath, Boulder, Colo. All experiments were carried out in compliance with regulations of the Institutional Animal Care and Use Committee and were conducted in accordance with principles and procedures dictated by the highest standards of humane animal care. […] On study days 25-27, onset of arthritis occurred, and mice were randomized into treatment groups (10/treatment group, 4/group for normal). […] Randomization into each group was done after swelling was obviously established in at least one paw, and attempts were made to assure approximately equal mean scores across the groups at the time of enrollment. […] Treatment continued daily (QD at 24 h intervals) through arthritis day 14."}, "[4]": {"assay": "Plasma level of compound in mice of the Btk resynthesis experiment", "type": "in vivo, mouse", "details": "single oral 50 mg/kg, n=6", "method": "Btk Protein Resynthesis in Mice. […] At 4, 8, 16, 24, 48, 72, and 96 hours after treatment, spleens and serum were harvested (n=6 mice/timepoint). Spleens were homogenized and assayed on the covalent probe ELISA for Btk target site occupancy and compound concentration in serum was measured."}, "Btk [5]": {"biological_target": "T1, Btk", "assay": "Btk target site occupancy ELISA, human primary naïve B cells", "type": "cell-based", "details": "10 nM", "method": "(§2) Btk Target Site Occupancy ELISA: An ELISA method for the detection of free uninhibited Btk in mouse, rat, dog, monkey, and human lysates was developed at Celgene Avilomics Research and a validation of this method in human B cell lysate was performed by a CLIA Certified laboratory (Cambridge Biomedical Laboratories, Boston, Mass.) The parameters that were assessed included: accuracy, linearity, dilution, precision (intra and inter-assay), stability, reference range, freeze-thaw cycles, reportable range, specificity, sensitivity, and carryover. […] Standards and samples were transferred to a streptavidin-coated 96-well ELISA plate and mixed while shaking for 1 h at room temperature. […] After wash, goat α-mouse-HRP (1:5000 dilution in PBS+0.05% Tween-20+0.5% BSA) was added and incubated for 1 h at room temperature. The ELISA was developed with addition of tetramethyl benzidine (TMB) followed by Stop Solution and read at OD 450 nm."}, "Btk [6]": {"biological_target": "T1, Btk", "assay": "Btk target site occupancy ELISA, Ramos cells", "type": "cell-based", "details": "one hour, read-out: EC90 of Btk occupancy (concentration required for 90% occupancy)", "method": "as §2"}, "Btk [7]": {"biological_target": "T1, Btk", "assay": "Immunoblot of Btk kinase activity in human primary naïve B cells", "type": "cell-based", "details": "10 nM", "method": "(§3) Following incubation, cells were centrifuged and resuspended in 100 μL of serum-free RPMI and BCR was stimulated with addition of 5 μg/mL α-human IgM. […] Membranes were scanned on a LiCor Odyssey Scanner using infrared fluorescence detection."}, "Btk [8]": {"biological_target": "T2, Btk (Mus musculus, UniProt P35991)", "T2 construct": "from tissue; host or cells: mouse spleen", "T2 sequence (P35991 whole entry)": "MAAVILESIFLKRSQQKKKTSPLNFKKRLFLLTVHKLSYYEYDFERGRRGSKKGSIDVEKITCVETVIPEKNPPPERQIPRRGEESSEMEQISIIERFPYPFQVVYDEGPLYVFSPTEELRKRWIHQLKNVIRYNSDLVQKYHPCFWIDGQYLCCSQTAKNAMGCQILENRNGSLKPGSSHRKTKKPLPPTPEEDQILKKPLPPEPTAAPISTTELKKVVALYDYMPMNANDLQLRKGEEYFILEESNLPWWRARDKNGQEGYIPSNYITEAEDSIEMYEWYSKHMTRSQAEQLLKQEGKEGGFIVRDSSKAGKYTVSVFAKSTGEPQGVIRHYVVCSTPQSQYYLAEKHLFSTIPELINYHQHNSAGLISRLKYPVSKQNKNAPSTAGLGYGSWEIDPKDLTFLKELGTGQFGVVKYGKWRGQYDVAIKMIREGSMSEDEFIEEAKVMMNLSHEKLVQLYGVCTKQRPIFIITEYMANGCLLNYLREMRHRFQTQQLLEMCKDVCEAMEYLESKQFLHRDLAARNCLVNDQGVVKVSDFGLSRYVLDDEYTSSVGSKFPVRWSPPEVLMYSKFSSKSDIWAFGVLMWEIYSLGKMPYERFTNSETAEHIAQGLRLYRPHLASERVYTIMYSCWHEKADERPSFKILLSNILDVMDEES", "assay": "Btk protein resynthesis in mice (spleen covalent probe ELISA)", "type": "in vivo", "method": "Spleen Homogenization: Spleens were harvested from mice, frozen immediately in liquid nitrogen and stored at −80° C. To generate spleen lysates, each spleen was sliced in half and lysed using a Precellys 24 Bead Homogenizer in 500 μL of BioRad Bio-Plex Lysis Buffer plus protease inhibitors. Supernatant was transferred to a fresh microfuge tube and stored frozen at −80° C. until analysis.\nas §2\nBtk Protein Resynthesis in Mice. […] Spleens were homogenized and assayed on the covalent probe ELISA for Btk target site occupancy and compound concentration in serum was measured."}, "naïve human B-cells": {"test_system": "naïve human B-cells", "assay": "B lymphocyte proliferation (3H-thymidine incorporation)", "type": "cell-based", "details": "B-cell; α-human IgM stimulated", "method": "B Lymphocyte Proliferation (^3H-Thymidine Incorporation): A suspension of resting purified naïve human B-cells isolated by negative selection (MACS reagent 130-091-150) in RPMI was prepared at 0.4-0.5×10^6 cells per mL. […] Experiments were performed in triplicate."}, "[9]": {"test_system": "PGPS 10S-induced arthritis in rats", "assay": "PGPS 10S-induced model of chronic arthritis", "type": "in vivo, rat", "method": "PGPS 10S-Induced Model of Chronic Arthritis. Rats were injected intraperitoneal with […] of animal body weight, to induce arthritis. Left and right hind limb lateral ankle widths of each rat were measured three times each prior to PG-PS 10S administration and on day 5. The first inflammatory response peak for both right and left ankles of PG-PS rats was reached on day 4. Rats were assigned to one of five treatment groups. […] Another group was treated with 0.3 mg/kg QD dexamethasone on the 3rd day post first peak (day 7) through day 22."}, "Btk [10]": {"biological_target": "T1, Btk", "assay": "Immunoblot of Btk signaling in α-IgM stimulated Ramos cells", "type": "cell-based", "method": "as §3"}}, "note": "Entries after “also recorded” stand apart in the source; their conditions may differ. Marks after values point to notes of the source that are not given here."}
{"smiles": "C=CC(=O)Nc1cccc(Nc2nc(Nc3cccc(OCCCNC(=O)CCCC(=O)NCCCOCCOCCOCCCNC(=O)CCCC[C@@H]4SC[C@@H]5NC(=O)N[C@@H]54)c3)ncc2C)c1", "note": "[Compound 2]", "values": [{"measurement": "IC50", "setting": "Btk [1]", "value": 0.5, "unit": "nM"}, {"measurement": "IC50", "setting": "Syk", "value": "> 1000", "unit": "nM"}, {"measurement": "IC50", "setting": "EGFR", "value": "> 25", "unit": "nM"}, {"measurement": "IC50", "setting": "Lyn", "value": "> 3500", "unit": "nM"}]}
{"smiles": "C[C@@H]1C[C@H]2[C@@H]3CCC4=CC(=O)C=C[C@]4(C)[C@@]3(F)[C@@H](O)C[C@]2(C)[C@@]1(O)C(=O)CO", "note": "[dexamethasone, reference compound]", "values": [{"measurement": "disease incidence", "setting": "[2]; dexamethasone group", "value": 0, "unit": "%"}, {"measurement": "TNF-a mean", "setting": "TNF-a", "value": 131.0, "unit": "pg/mL"}, {"measurement": "IL-6 mean", "setting": "IL-6", "value": "9.8* pg/mL"}, {"measurement": "KC mean", "setting": "KC", "value": 52.9, "unit": "pg/mL"}, {"measurement": "inhibition of histopathologic signs of disease (six joints)", "setting": "[3]; dexamethasone positive control (0.2 mg/kg)", "value": 82, "unit": "%"}]}
{"smiles": "C=CC(=O)Nc1cccc(Nc2nc(Nc3ccc(OCCOC)cc3)ncc2F)c1", "note": "[Compound 1, N-(3-(5-fluoro-2-(4-(2-methoxyethoxyl)phenylamino)pyrimidin-4-ylamino)phenyl)acrylamide]", "values": [{"measurement": "compound concentration in plasma at the 8 hour timepoint", "setting": "[4]", "value": "undetectable in 5/6 mice; also recorded: absent in 5 of 6 animals"}, {"measurement": "receptor occupancy at 0.01 µM", "setting": "Btk [5]", "value": 37, "unit": "%"}, {"measurement": "EC90", "setting": "Btk [6]", "value": 39, "unit": "nM"}, {"measurement": "inhibition at 0.01 µM", "setting": "Btk [7]", "value": 42, "unit": "%"}, {"measurement": "disease incidence", "setting": "[2]; 3 mg/kg QD", "value": 50, "unit": "%"}, {"measurement": "disease incidence", "setting": "[2]; 10 mg/kg QD", "value": 17, "unit": "%"}, {"measurement": "disease incidence", "setting": "[2]; 30 mg/kg QD", "value": 8, "unit": "%"}, {"measurement": "body weight loss associated with severity of disease", "setting": "[2]; all three dose levels", "value": "prevented the loss in body weight"}, {"measurement": "persistence of action on Btk (occupancy) after circulating compound has disappeared", "setting": "Btk [8]; mice, single oral 50 mg/kg", "value": "> 12", "unit": "h"}, {"measurement": "new Btk protein, % of pre-dose Btk protein levels", "setting": "Btk [8]; mouse spleen, 24 hours after single oral 50 mg/kg", "value": 43, "unit": "%"}, {"measurement": "new Btk protein, % of pre-dose Btk protein levels", "setting": "Btk [8]; mouse spleen, 48 hours after single oral 50 mg/kg", "value": 71, "unit": "%"}, {"measurement": "time for Btk protein to recover to 50% pre-dose levels", "setting": "Btk [8]; mouse spleen, single oral 50 mg/kg", "value": "24 to 48", "unit": "h"}, {"measurement": "EC50", "setting": "naïve human B-cells", "value": 3, "unit": "nM"}, {"measurement": "spleen enlargement vs vehicle", "setting": "[9]; 10 mg/kg QD, 30 mg/kg QD and 30 mg/kg QOD", "value": "significantly prevented spleen enlargement"}, {"measurement": "PGPS 10S-induced arthritis", "setting": "[9]; 3, 10, 30 mg/kg QD, 30 mg/kg QOD", "value": "inhibited PGPS 10S-induced arthritis in a dose-dependent manner"}, {"measurement": "right and left lateral ankle width vs diseased group", "setting": "[9]; PGPS rats, day 7 through day 22", "value": "significantly lower"}, {"measurement": "concentration at which 90% of Btk activity was inhibited", "setting": "Btk [10]", "value": 35, "unit": "nM"}, {"measurement": "activation of the downstream kinase Erk", "setting": "Btk [10]; anti-IgM", "value": "potently inhibited"}, {"measurement": "phosphorylation of Btk on Tyr551", "setting": "Btk [10]; anti-IgM", "value": "no effect"}, {"measurement": "phosphorylation of the Btk substrate PLCγ2", "setting": "Btk [10]; anti-IgM", "value": "potently inhibited"}, {"measurement": "inhibition of histopathologic signs of disease (six joints)", "setting": "[3]; 10 mg/kg", "value": 87, "unit": "%"}]}
